Measured values: US4971995A, “Alkyl or benzyl phenol ethers, their preparation and their therapeutic uses” (Delande S.A., priority 1988, dated 1990)
pKi: −log10 of the molar value. Where two headings read alike, the source gives them in different places.

Assays:
[1] = molecular target: T1, form A of monoamine oxydase (Rattus norvegicus, UniProt P21396); assay: in vitro inhibition of monoamine oxydase form A (homogenized rat brain, (14C) serotonine substrate); format: biochemical, rat (male Sprague-Dawley, entire brain); conditions: rat brain homogenate
T1 construct: monoamine oxydase in rat brain tissue; from tissue; host or cells: homogenized entire brain of male Sprague-Dawley rat
T1 sequence (P21396 1-526): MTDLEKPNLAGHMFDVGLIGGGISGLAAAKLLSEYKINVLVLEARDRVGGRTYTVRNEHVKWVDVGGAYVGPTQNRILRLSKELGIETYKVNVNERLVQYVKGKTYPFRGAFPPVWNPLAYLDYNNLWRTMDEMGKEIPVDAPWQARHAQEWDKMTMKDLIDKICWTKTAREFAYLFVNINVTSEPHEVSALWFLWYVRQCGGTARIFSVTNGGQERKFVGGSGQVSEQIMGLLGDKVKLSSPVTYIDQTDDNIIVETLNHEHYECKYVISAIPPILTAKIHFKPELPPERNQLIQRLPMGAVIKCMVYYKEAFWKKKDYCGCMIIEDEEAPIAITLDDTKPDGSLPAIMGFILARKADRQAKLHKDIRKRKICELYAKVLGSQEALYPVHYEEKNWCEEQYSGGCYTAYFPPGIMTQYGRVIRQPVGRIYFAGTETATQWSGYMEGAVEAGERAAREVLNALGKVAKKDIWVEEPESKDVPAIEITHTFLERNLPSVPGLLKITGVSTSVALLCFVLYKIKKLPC
Method: Pharmacol., 1983, 35, 161-165.
(§1) Inhibition constants KIA and KIB on forms A and B of mono-
(§2) amine oxydase (homogenized entire brain of a male rate
(§3) (Sprague-Dawley): 1 g of tissue to 16 ml of phosphate
(§4) The inhibition constants were calculated from the formula: KI =
CI50 /l + [S]/Km taking [S] = 48 μM for (^14 C)
serotonine and Km = 100 μM, or [S] = 12 μM for (^14 C)
phenylethylamine and Km = 6 μM
(§5) as the selective substrates for forms A and B respectively of monoamine oxydase.

[2] = molecular target: T2, form B of monoamine oxydase (Rattus norvegicus, UniProt P19643); assay: in vitro inhibition of monoamine oxydase form B (homogenized rat brain, (14C) phenylethylamine substrate); format: biochemical, rat (male Sprague-Dawley, entire brain); conditions: for pKi: rat brain homogenate, pH 7.4, (14C) phenylethylamine; for KIA /KIB, no pre-incubation / KIA /KIB, after 20 min pre-incubation: selectivity ratio form A / form B
T2 construct: monoamine oxydase in rat brain tissue; from tissue; host or cells: homogenized entire brain of male Sprague-Dawley rat
T2 sequence (P19643 1-520): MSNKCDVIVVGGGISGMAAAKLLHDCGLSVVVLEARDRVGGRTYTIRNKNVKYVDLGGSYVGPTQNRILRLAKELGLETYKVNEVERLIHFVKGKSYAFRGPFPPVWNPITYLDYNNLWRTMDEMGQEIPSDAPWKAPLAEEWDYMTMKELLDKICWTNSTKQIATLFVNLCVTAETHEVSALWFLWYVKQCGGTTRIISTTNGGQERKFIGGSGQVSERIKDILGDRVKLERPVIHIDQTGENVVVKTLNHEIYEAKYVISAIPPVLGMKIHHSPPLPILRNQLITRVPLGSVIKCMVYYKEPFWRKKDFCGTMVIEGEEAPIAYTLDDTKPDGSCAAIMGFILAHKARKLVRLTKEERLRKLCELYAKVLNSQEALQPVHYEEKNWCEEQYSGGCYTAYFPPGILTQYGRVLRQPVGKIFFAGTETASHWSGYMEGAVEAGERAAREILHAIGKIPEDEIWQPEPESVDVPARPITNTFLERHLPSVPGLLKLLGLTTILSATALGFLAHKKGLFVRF
Method: as §1, §2, §3, §4, §5

[3] = no pre-incubation, pH 7.4, read-out: Inhibition constant KIA, no pre-incubation
[4] = no pre-incubation, read-out: Inhibition constant KIB, no pre-incubation
[5] = after 20 min pre-incubation, pH 7.4, read-out: Inhibition constant KIA, after 20 min pre-incubation
[6] = after 20 min pre-incubation, read-out: Inhibition constant KIB, after 20 min pre-incubation

## OCCCCc1ccc(OCc2cccc(Cl)c2)cc1 [compound 200123]
[1]; [3]
  pKi: < 5.76
[2]; [4]
  pKi: 6.63
[2]; no pre-incubation
  KIA /KIB, no pre-incubation: > 7

## COCCCC(O)c1ccc(OCc2cccc(Cl)c2)cc1 (racemic) [compound 280190, [(chloro-3 phenylmethyloxy)-4 phenyl]-1 methoxy-4 butanol-1 (±)]
[1]; [5]
  pKi: 5.27
[2]; [6]
  pKi: 7.10
[2]; after 20 min pre-incubation
  KIA /KIB, after 20 min pre-incubation: 69

## COC[C@H](O)COc1ccc(OCc2cccc(Cl)c2)cc1 [compound 280040, [(chloro-3 phenylmethyloxy)-4 phenoxy]-1 methoxy-3 propanol-2 S (+)]
[1]; [5]
  pKi: 5.78

## COC(CO)COc1ccc(OCc2cccc(Cl)c2)cc1 (racemic) [compound 200213, [(chloro-3 phenylmethyloxy)-4 phenoxy]-3 methoxy-2 propanol-1 (±)]
[1]; [3]
  pKi: < 5.29
[2]; [4]
  pKi: 6.27
[2]; no pre-incubation
  KIA /KIB, no pre-incubation: > 9.5

## COCC(COc1ccc(OCc2cccc(Cl)c2)cc1)OC (racemic) [compound 200210]
[1]; [5]
  pKi: < 5.76
[1]; [3]
  pKi: < 5.76
[2]; [6]
  pKi: 6.24
[2]; [4]
  pKi: 6.39
[2]; after 20 min pre-incubation
  KIA /KIB, after 20 min pre-incubation: > 3
[2]; no pre-incubation
  KIA /KIB, no pre-incubation: > 4
